Results on three compounds are retold here after patent US20250326865A1, “C-MET PROTEIN-BINDING PEPTIDE COMPLEX” (PeptiDream Inc., priority 2021, published 2025).

Holding throughout (type): cell-based
Assay [1] deals with Normal human umbilical vein vascular endothelial cells (HUVECs). The conditions noted are these: HUVEC, cultured for 2 days after addition, FIG. 2; read-out: EC50 (HUVEC cell proliferation). The procedure: In order to evaluate the biological activity of the peptide complex of the present invention, the cell proliferation inducing activity was verified. Normal human umbilical vein vascular endothelial cells (HUVECs) were cultured using HuMedia-EG2 (KURABO INDUSTRIES LTD.). After cells were detached using Accutase (Innovative cell technologies), they were resuspended in a Medium without serum or growth factors (Cell system) containing 5% FBS (MBL), seeded into a 96-well plate at 10000 cells per well, and cultured overnight. The next day, a complex (GFs_c-Met-00014336-PEG13 dimer; peptide complex no. 49 in Table 4) of the peptide (SEQ ID NO: 34) synthesized in Example 2 and a linker (SEQ ID NO: 37), or Recombinant Human HGF Protein (R&D systems) as a control was added and cultured for another 2 days. The medium was then removed and the cell count was determined quantitatively using the CellTiter-Glo (registered trademark) Luminescent Cell Viability Assay reagent (Promega) according to the protocol provided. A SpectraMax (registered trademark) Paradigm (registered trademark) multimode microplate reader (Molecular Devices, LLC.) was used for detection. The obtained signal value was analyzed by GraphPad Prism, and EC50 was calculated.

In assay [2] the test system is Renal proximal tubule epithelial cells (RPTEC). The assay is described as follows: Evaluation of tube formation in collagen gel. The procedure:
Renal proximal tubule epithelial cells (RPTEC) were cultured in a growth medium (Renal Epithelial Cell Basal Medium (REBM)+0.5% FBS+2.4 mM L-Alanyl-L-Glutamine+10 nM Triiodothyronine+10 ng/mL rh EGF+100 ng/mL Hydrocortisone Hemisuccinate+5 μg/mL rh Insulin+1 μM Epinephrine+5 μg/mL Transferrin) (ATCC). The cells were detached using Trypsin-EDTA, and then resuspended in an assay medium (REBM+0.5% FBS+2.4 mM L-Alanyl-L-Glutamine+10 nM Triiodothyronine+100 ng/mL Hydrocortisone Hemisuccinate+1 μM Epinephrine+5 μg/mL Transferrin+1.8 mM CaCl2).
RPTECs were resuspended in a mixture of Cellmatrix (registered trademark) Type I-A (Nitta Gelatin Inc.), concentrated culture solution (Nitta Gelatin Inc.) and a reconstitution buffer solution (Nitta Gelatin Inc.) on ice according to the instructions. […]
To the assay medium, 2 nM HGF, 1.6 nM EGF or a complex GFs_c-Met-00014336-PEG13 dimer; peptide complex No. 49 in Table 4) of a peptide (SEQ ID NO: 34) synthesized in Example 2 and a linker (SEQ ID NO: 37) at 0.08, 0.4, 2, and 10 nM, was added and 400 μL of each resultant mixture was added to each well of 48-well plate to which the gelated suspension had been added as mentioned above. […] The presence or absence of tube formation was observed and evaluated using a phase-contrast microscope on the third day and the eighth day of the start of the culturing.

The next assay deals with T1, HGF R (Homo sapiens, UniProt P08581).
T1 construct: endogenous in cells; host or cells: A431
T1 sequence (P08581 25-1390): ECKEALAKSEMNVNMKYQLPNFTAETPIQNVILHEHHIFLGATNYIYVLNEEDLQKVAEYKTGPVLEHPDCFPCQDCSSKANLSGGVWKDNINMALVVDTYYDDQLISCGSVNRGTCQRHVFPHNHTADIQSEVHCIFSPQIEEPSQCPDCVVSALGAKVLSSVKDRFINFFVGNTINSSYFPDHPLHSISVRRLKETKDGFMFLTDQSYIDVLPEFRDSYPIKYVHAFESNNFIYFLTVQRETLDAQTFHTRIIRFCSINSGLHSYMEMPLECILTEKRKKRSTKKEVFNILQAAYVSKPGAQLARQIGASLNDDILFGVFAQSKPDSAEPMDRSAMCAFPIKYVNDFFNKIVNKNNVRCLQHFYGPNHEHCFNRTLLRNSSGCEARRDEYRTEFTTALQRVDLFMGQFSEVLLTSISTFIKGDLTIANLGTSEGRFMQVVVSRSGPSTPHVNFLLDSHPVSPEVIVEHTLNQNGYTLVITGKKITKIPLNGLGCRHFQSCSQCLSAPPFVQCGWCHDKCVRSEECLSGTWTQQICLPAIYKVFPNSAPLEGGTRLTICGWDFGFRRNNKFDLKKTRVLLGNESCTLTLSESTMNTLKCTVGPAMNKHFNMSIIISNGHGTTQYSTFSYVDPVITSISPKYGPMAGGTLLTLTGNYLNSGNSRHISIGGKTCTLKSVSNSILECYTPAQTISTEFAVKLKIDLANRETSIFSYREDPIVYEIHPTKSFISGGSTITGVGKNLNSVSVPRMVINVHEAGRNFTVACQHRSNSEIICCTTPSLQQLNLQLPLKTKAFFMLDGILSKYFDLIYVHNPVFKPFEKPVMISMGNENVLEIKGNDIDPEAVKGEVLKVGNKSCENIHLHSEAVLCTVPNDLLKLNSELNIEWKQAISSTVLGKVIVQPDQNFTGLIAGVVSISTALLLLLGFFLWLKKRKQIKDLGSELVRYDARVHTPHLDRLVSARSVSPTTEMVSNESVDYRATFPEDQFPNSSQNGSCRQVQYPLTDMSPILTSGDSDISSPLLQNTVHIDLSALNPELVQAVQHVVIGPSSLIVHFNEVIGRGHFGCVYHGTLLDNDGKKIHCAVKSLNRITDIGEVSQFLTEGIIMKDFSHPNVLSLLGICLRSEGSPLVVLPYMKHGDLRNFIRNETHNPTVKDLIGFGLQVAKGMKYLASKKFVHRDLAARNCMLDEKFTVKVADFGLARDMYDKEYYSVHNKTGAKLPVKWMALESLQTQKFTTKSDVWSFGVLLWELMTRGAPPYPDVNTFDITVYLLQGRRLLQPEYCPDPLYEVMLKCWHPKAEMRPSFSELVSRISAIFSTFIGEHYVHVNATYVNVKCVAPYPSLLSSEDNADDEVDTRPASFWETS
The assay is described as follows: Human Phospho-RTK array assay in A431 cells. Conditions: 10 minutes of stimulation, 2 nM complex, 7.8 nM HGF. The procedure:
A431 cells were cultured in DMEM high glucose, GlutaMAX (registered trademark) Supplement, pyruvate (Thermo Fisher Scientific), containing 10% FBS (Gibco). After cells were detached using Accutase (registered trademark) (Innovative cell technologies), they were seeded into a 6-well plate at 1000000 cells per well and cultured overnight.
The next day, for starvation, the culture medium was changed to DMEM high glucose, GlutaMAX (registered trademark) Supplement, pyruvate (Thermo Fisher Scientific), containing an assay medium (0.1% BSA (Sigma-Aldrich)), and the cells were cultured overnight. Then, 7.8 nM Recombinant Human HGF Protein (R&D systems) or 2 nM complex (GFs_c-Met 00014336-PEG9 dimer; peptide complex No. 51 in Table 4) of peptide (SEQ ID NO: 34) synthesized in Example 2 and a linker (SEQ ID NO: 36) was added, and after 10 minutes of stimulation, cells were lysed in a Lysis Buffer provided in the Proteome Profiler Human Phospho-RTK Array Kit (R & D systems). Thereafter, the procedure was performed according to the protocol of the kit, and chemiluminescent signals by WesternSure (registered trademark) PREMIUM chemiluminescent substrate kit (LI-COR) were detected using C-DiGit (registered trademark) (Scrum).
In (2) in FIG. 5, a is the result of no addition, b is of addition of HGF, and c of addition of the peptide complex.

For the next assay, the target named is T2, c-Met (Homo sapiens, UniProt P08581).
T2 construct: endogenous in cells; host or cells: A431 (human)
T2 sequence (P08581 25-1390): as above
The assay is described as follows: Phospho-c-Met AlphaLISA assay (c-Met agonist activity) in A431 cells. Conditions: phospho-c-Met AlphaLISA, A431 cells, FIG. 1; read-out: EC50 (c-Met agonist activity). As for the experimental part:
To evaluate the activation potency (c-Met agonist activity) of c-Met of the peptide complex of the present invention, the phosphorylation of c-Met was verified. Human A431 cells were cultured in DMEM high glucose, GlutaMAX (registered trademark) Supplement, pyruvate (Thermo Fisher Scientific), containing 10% FBS (Gibco). After cells were detached using Accutase (Innovative cell technologies), they were seeded into a 96-well plate at 10000 cells per well and cultured overnight. The next day, for starvation, the culture medium was changed to DMEM high glucose, GlutaMAX (registered trademark) Supplement, pyruvate (Thermo Fisher Scientific), containing 0.1% BSA (Sigma-Aldrich), and the cells were cultured overnight. Then, the peptide complex synthesized in Example 3 or Recombinant Human HGF Protein (R&D systems) as a control was added, and after 15 minutes of stimulation, cells were lysed in a Lysis Buffer provided in the AlphaLISA (registered trademark) SureFire (registered trademark) Ultra™ Phospho-c-Met (Tyr1234/1235) kit (PerkinElmer). The assay was performed according to the kit protocol, and a SpectraMax (registered trademark) Paradigm (registered trademark) multimode microplate reader (Molecular Devices, LLC.) was used for signal detection. […] In the same manner, the C50 value was calculated by GraphPad Prism as the concentration of peptide showing 50% activity of the signal induced by HGF. […] Further, for a complex (GFs_c-Met-00014336-PEG13 dimer; complex no. 49 in Table 4) of a peptide (SEQ ID NO: 34) and a linker (SEQ ID NO: 37), a graph of c-Met agonist activity is shown in FIG. 1.
(In general: In Alpha technology, singlet oxygen from a donor bead excites a nearby acceptor bead.)

Starred links: 1 amine or outer side, 2 acyl side, 3 side chain; linkers in the order of their positions; H or OH if unused. Positions of bridges follow the written chain, without caps; N, C: chain ends. Non-standard residues stand in square brackets, D forms with d. Residues, ends and D or L forms follow the SMILES beside them. Primed or numbered codes have the meaning given here. Chains are numbered I, II in the order given. No end group written: not given here. X1 = O=C(OCCOCCOCCOCCOCCOCCOCCOCCOCCOCCOCCOCCOC(=O)[*:2])[*:1]; NMeF = CN[C@@H](Cc1ccccc1)C(=O)O; Ahp(2) = CCCCC[C@H](N)C(=O)O; NMeC = CN[C@@H](CS)C(=O)O; Ahp′ = not defined here

Regarding `CCCCC[C@@H]1NC(=O)[C@H](CC(=O)O)NC(=O)[C@H](CCC(=O)O)NC(=O)[C@H](CC(=O)O)NC(=O)[C@H](Cc2ccccc2)N(C)C(=O)[C@H](CO)NC(=O)[C@H](C(C)C)NC(=O)[C@H](C)NC(=O)[C@H]([C@@H](C)O)NC(=O)[C@H](Cc2ccccc2)N(C)C(=O)CSC[C@@H](C(=O)NCC(=O)N[C@@H](CCCCNC(=O)OCCOCCOCCOCCOCCOCCOCCOCCOCCOCCOCCOCCOC(=O)NCCCC[C@H](NC(=O)CNC(=O)[C@@H]2CSCC(=O)N(C)[C@@H](Cc3ccccc3)C(=O)N[C@@H]([C@@H](C)O)C(=O)N[C@@H](C)C(=O)N[C@@H](C(C)C)C(=O)N[C@@H](CO)C(=O)N(C)[C@@H](Cc3ccccc3)C(=O)N[C@@H](CC(=O)O)C(=O)N[C@@H](CCC(=O)O)C(=O)N[C@@H](CC(=O)O)C(=O)N[C@@H](CCCCC)C(=O)N3CCC[C@H]3C(=O)N[C@@H](CCCNC(=N)N)C(=O)N[C@@H](Cc3c[nH]c4ccccc34)C(=O)N[C@@H](CO)C(=O)N2C)C(N)=O)C(N)=O)N(C)C(=O)[C@H](CO)NC(=O)[C@H](Cc2c[nH]c3ccccc23)NC(=O)[C@H](CCCNC(=N)N)NC(=O)[C@@H]2CCCN2C1=O` [compound 49] (I: {CH2CO}-[NMeF]TAVS[NMeF]DED[Ahp(2)]PRWS[NMeC]GK-NH2 / II: {CH2CO}-[NMeF]TAVS[NMeF]DED[Ahp(2)]PRWS[NMeC]GK-NH2; linker I:17-II:17 via X1 (inferred); thioether I:N-I:15, II:N-II:15 (inferred); C-terminus assumed), in assay [1], the EC50 is 0.55 nM. In addition, the tube formation entry in assay [2] (RPTEC in collagen gel, 0.08-10 nM, third and eighth day, phase-contrast microscope) is recorded as “promoted tube formation”. The “tube formation with branching” value in assay [2] (RPTEC, 10 nM complex, eighth day (f of FIG. 4)) is “not only tube formation but also branch formation was promoted”.

In the case of “51 ({CH2CO}-[NMeF]TAVS[NMeF]DED[Ahp′]PRWS[NMeC]; thioether N-15 (inferred); not fully specified; reading uncertain; also: conjugated moiety via linker) [compound 51]”, the “specific phosphorylation pattern of receptor tyrosine kinases” value with HGF R is “Only HGF R was specifically phosphorylated”.

With “HGF: Recombinant Human HGF Protein (R&D systems), hepatocyte growth factor, used as a control”, the “specific phosphorylation pattern of receptor tyrosine kinases” value with HGF R is on record as “Only HGF R was specifically phosphorylated”. The figures for the EC50 (with c-Met; in assay [1]) were 0.66 nM and 0.37 nM, respectively.
